Source: patent US12227496B2 (BRISTOL-MYERS SQUIBB COMPANY, priority 2019, dated 2025)

Biological target: T1, human FXR (Homo sapiens, UniProt Q96RI1)
T1 construct: expressed in transfected cells; host or cells: HEK293 cells stably carrying a 5xGal4-response-element firefly luciferase reporter, transiently transfected with pcDNA3.1-Gal4-FXR
T1 sequence (Q96RI1 262-486 limits assumed): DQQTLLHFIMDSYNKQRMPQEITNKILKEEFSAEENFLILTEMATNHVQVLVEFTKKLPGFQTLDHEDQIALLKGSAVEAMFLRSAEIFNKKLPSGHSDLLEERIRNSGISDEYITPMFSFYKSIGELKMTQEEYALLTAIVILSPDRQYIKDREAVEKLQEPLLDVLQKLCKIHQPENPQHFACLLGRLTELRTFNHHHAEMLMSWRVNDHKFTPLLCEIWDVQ
Assay: transient human FXR/Gal4-luciferase reporter assay
Assay type: cell-based
Settings: Gal4-hFXR LBD fusion, luciferase reporter in HEK293 cells; response relative to 8 μM GW-4064
Procedure, shortened: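 HEK293 cells stably carrying a 5×Gal4-response-element firefly luciferase reporter were transiently transfected with Gal4-hFXR. They were then incubated overnight at 37 °C with compound serial dilutions in medium containing 10% charcoal/dextran-stripped FBS. Luminescence was read after Steady-Glo addition.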

| SMILES | EC50 [nM] |
| --- | --- |
| Cn1nc(-c2cccc(N(CC34CCC(c5nc(C6CC6)no5)(CC3)CC4)C(=O)C3CCOCC3)c2)cc1C1CC1 [Example 50, N-((4-(3-cyclopropyl-1,2,4-oxadiazol-5-yl)bicyclo[2.2.2]octan-1-yl)methyl)-N-(3-(5-cyclopropyl-1-methyl-1H-pyrazol-3-yl)phenyl)tetrahydro-2H-pyran-4-carboxamide] | 334 |
| COCc1nc(-c2cccc(N(CC34CCC(c5nc(C6CC6)no5)(CC3)CC4)C(=O)C3CCOCC3)c2)cs1 [Example 47, N-((4-(3-cyclopropyl-1,2,4-oxadiazol-5-yl)bicyclo[2.2.2]octan-1-yl)methyl)-N-(3-(2-(methoxymethyl)thiazol-4-yl)phenyl)tetrahydro-2H-pyran-4-carboxamide] | 121 |
| O=C(C1CCCOC1)N(CC12CCC(c3nc(C4CC4)no3)(CC1)CC2)c1cccc(-c2nc3cc(F)ccc3o2)c1 (racemic) [Example 92, N-((4-(3-cyclopropyl-1,2,4-oxadiazol-5-yl)bicyclo[2.2.2]octan-1-yl)methyl)-N-(3-(5-fluorobenzo[d]oxazol-2-yl)phenyl)tetrahydro-2H-pyran-3-carboxamide] | 589 |
| CC(C)(C)c1nc(C23CCC(CN(C(=O)C4CCOCC4)c4cccc(-c5ccc(OC(F)F)cc5)c4)(CC2)CC3)no1 [Example 89, N-((4-(5-(tert-butyl)-1,2,4-oxadiazol-3-yl)bicyclo[2.2.2]octan-1-yl)methyl)-N-(4′-(difluoromethoxy)-[1,1′-biphenyl]-3-yl)tetrahydro-2H-pyran-4-carboxamide] | 96 |
| CCCc1ncc(-c2cccc(N(CC34CCC(c5nc(C6CC6)no5)(CC3)CC4)C(=O)C3CCCOC3)c2)o1 (racemic) [Example 30, N-((4-(3-cyclopropyl-1,2,4-oxadiazol-5-yl)bicyclo[2.2.2]octan-1-yl)methyl)-N-(3-(2-propyloxazol-5-yl)phenyl)tetrahydro-2H-pyran-3-carboxamide] | 145 |
| CCOc1cc(-c2cccc(N(CC34CCC(c5nc(C6CC6)no5)(CC3)CC4)C(=O)C3CCC(F)(F)CC3)c2)ccn1 [Example 79, N-((4-(3-cyclopropyl-1,2,4-oxadiazol-5-yl)bicyclo[2.2.2]octan-1-yl)methyl)-N-(3-(2-ethoxypyridin-4-yl)phenyl)-4,4-difluorocyclohexane-1-carboxamide] | 408 |
| CCc1noc(-c2cccc(N(CC34CCC(c5nc(C6CC6)no5)(CC3)CC4)C(=O)C3CCCCC3)c2)n1 [Example 4, N-((4-(3-cyclopropyl-1,2,4-oxadiazol-5-yl)bicyclo[2.2.2]octan-1-yl)methyl)-N-(3-(3-ethyl-1,2,4-oxadiazol-5-yl)phenyl)cyclohexanecarboxamide] | 49 |
| COCc1nc(-c2cccc(N(CC34CCC(c5nc(C6CC6)no5)(CC3)CC4)C(=O)C3CCCCC3)c2)cs1 [Example 49, N-((4-(3-cyclopropyl-1,2,4-oxadiazol-5-yl)bicyclo[2.2.2]octan-1-yl)methyl)-N-(3-(2-(methoxymethyl)thiazol-4-yl)phenyl)cyclohexanecarboxamide] | 105 |
| CCOc1cc(-c2cccc(N(CC34CCC(c5nc(C6CC6)no5)(CC3)CC4)C(=O)C3CCCCC3)c2)no1 [Example 27, N-((4-(3-cyclopropyl-1,2,4-oxadiazol-5-yl)bicyclo[2.2.2]octan-1-yl)methyl)-N-(3-(5-ethoxyisoxazol-3-yl)phenyl)cyclohexanecarboxamide] | 75 |
| O=C(N1CCC(F)(F)CC1)N(CC12CCC(c3nc(C4CC4)no3)(CC1)CC2)c1cccc(-c2nc(C3CC3)no2)c1 [Example 58, N-((4-(3-cyclopropyl-1,2,4-oxadiazol-5-yl)bicyclo[2.2.2]octan-1-yl)methyl)-N-(3-(3-cyclopropyl-1,2,4-oxadiazol-5-yl)phenyl)-4,4-difluoropiperidine-1-carboxamide] | 413 |
| CCOc1ccc(-c2cc(N(CC34CCC(c5noc(C(C)(F)F)n5)(CC3)CC4)C(=O)C3CCC(F)(F)CC3)ccc2F)cc1 [Example 105, N-((4-(5-(1,1-difluoroethyl)-1,2,4-oxadiazol-3-yl)bicyclo[2.2.2]octan-1-yl)methyl)-N-(4′-ethoxy-6-fluoro-[1,1′-biphenyl]-3-yl)-4,4-difluorocyclohexane-1-carboxamide] | 637 |
| Cc1cn(-c2cccc(N(CC34CCC(c5nc(C(C)(C)C)no5)(CC3)CC4)C(=O)C3CCC(F)(F)CC3)c2)cn1 [Example 142, N-((4-(3-(tert-butyl)-1,2,4-oxadiazol-5-yl)bicyclo[2.2.2]octan-1-yl)methyl)-4,4-difluoro-N-(3-(4-methyl-1H-imidazol-1-yl)phenyl)cyclohexane-1-carboxamide] | 721 |
| COc1ccc(-c2cccc(N(CC34CCC(c5nc(C)no5)(CC3)CC4)C(=O)C3CCCCC3)c2)cc1 [Example 76, N-(4′-methoxy-[1,1′-biphenyl]-3-yl)-N-((4-(3-methyl-1,2,4-oxadiazol-5-yl)bicyclo[2.2.2]octan-1-yl)methyl)cyclohexane carboxamide] | 387 |
| CCOc1ncc(-c2cccc(N(CC34CCC(c5noc(C(C)(C)F)n5)(CC3)CC4)C(=O)c3ccc(OC)cc3)c2)cn1 [Example 143, N-(3-(2-ethoxypyrimidin-5-yl)phenyl)-N-((4-(5-(2-fluoropropan-2-yl)-1,2,4-oxadiazol-3-yl)bicyclo[2.2.2]octan-1-yl)methyl)-4-methoxybenzamide] | 202 |
| CC(F)(F)c1nc(C23CCC(CN(C(=O)C4CCC(F)(F)CC4)c4ccc(F)c(-c5ccc(S(C)(=O)=O)cc5)c4)(CC2)CC3)no1 [Example 107, N-((4-(5-(1,1-difluoroethyl)-1,2,4-oxadiazol-3-yl)bicyclo[2.2.2]octan-1-yl)methyl)-4,4-difluoro-N-(6-fluoro-4′-(methylsulfonyl)-[1,1′-biphenyl]-3-yl)cyclohexane-1-carboxamide] | 1020 |
| Cn1nc(C2CC2)cc1C12CCC(CN(C(=O)C3CCC(F)(F)CC3)c3cccc(-c4cc(C5CC5)on4)c3)(CC1)CC2 [Example 163, N-((4-(3-cyclopropyl-1-methyl-1H-pyrazol-5-yl)bicyclo[2.2.2]octan-1-yl)methyl)-N-(3-(5-cyclopropylisoxazol-3-yl)phenyl)-4,4-difluorocyclohexane-1-carboxamide] | 130 |
| O=C(C1CCS(=O)(=O)CC1)N(CC12CCC(c3nc(C4CC4)no3)(CC1)CC2)c1cccc(-c2nc(C3CC3)no2)c1 [Example 18, N-((4-(3-cyclopropyl-1,2,4-oxadiazol-5-yl)bicyclo[2.2.2]octan-1-yl)methyl)-N-(3-(3-cyclopropyl-1,2,4-oxadiazol-5-yl)phenyl)tetrahydro-2H-thiopyran-4-carboxamide 1,1-dioxide] | 1170 |
| CC(C)(F)c1nc(C23CCC(CN(C(=O)C4CCOCC4)c4cccc(-c5cn[nH]c(=O)c5)c4)(CC2)CC3)no1 [Example 128, N-((4-(5-(2-fluoropropan-2-yl)-1,2,4-oxadiazol-3-yl)bicyclo[2.2.2]octan-1-yl)methyl)-N-(3-(6-oxo-1,6-dihydropyridazin-4-yl)phenyl)tetrahydro-2H-pyran-4-carboxamide] | 4000 |
| CC(F)(F)c1nc(C23CCC(CN(C(=O)C4CCC(F)(F)CC4)c4cccc(-c5cc(C6CC6)no5)c4)(CC2)CC3)no1 [Example 150, N-(3-(3-cyclopropylisoxazol-5-yl)phenyl)-N-((4-(5-(1,1-difluoroethyl)-1,2,4-oxadiazol-3-yl)bicyclo[2.2.2]octan-1-yl)methyl)-4,4-difluorocyclohexane-1-carboxamide] | 38 |
| Cc1nc2ccc(-c3cccc(N(CC45CCC(c6cc(C7CC7)nn6C)(CC4)CC5)C(=O)C4CCC(F)(F)CC4)c3)cc2s1 [Example 137, N-((4-(3-cyclopropyl-1-methyl-1H-pyrazol-5-yl)bicyclo[2.2.2]octan-1-yl)methyl)-4,4-difluoro-N-(3-(2-methylbenzo[d]thiazol-6-yl)phenyl)cyclohexane-1-carboxamide] | 449 |
| COc1cc(-c2cccc(N(CC34CCC(c5nnnn5C)(CC3)CC4)C(=O)C3CCCCC3)c2)ccn1 [Example 100, N-(3-(2-methoxypyridin-4-yl)phenyl)-N-((4-(1-methyl-1H-tetrazol-5-yl)bicyclo[2.2.2]octan-1-yl)methyl)cyclohexanecarboxamide] | 506 |
| CCOc1ncc(-c2cccc(N(CC34CCC(c5nc(C)no5)(CC3)CC4)C(=O)C3CCCCC3)c2)o1 [Example 10, N-(3-(2-ethoxyoxazol-5-yl)phenyl)-N-((4-(3-methyl-1,2,4-oxadiazol-5-yl)bicyclo[2.2.2]octan-1-yl)methyl)cyclohexanecarboxamide] | 71 |
| CC(C)(C)c1noc(C23CCC(CN(C(=O)C4CCC(F)(F)CC4)c4cccc(-c5cn[nH]c(=O)c5)c4)(CC2)CC3)n1 [Example 127, N-((4-(3-(tert-Butyl)-1,2,4-oxadiazol-5-yl)bicyclo[2.2.2]octan-1-yl)methyl)-4,4-difluoro-N-(3-(6-oxo-1,6-dihydropyridazin-4-yl)phenyl)cyclohexane-1-carboxamide] | 4000 |
| CN1CCC(C(=O)N(CC23CCC(c4nc(C5CC5)no4)(CC2)CC3)c2cccc(-c3cnc(C4CC4)o3)c2)CC1 [Example 24, N-((4-(3-cyclopropyl-1,2,4-oxadiazol-5-yl)bicyclo[2.2.2]octan-1-yl)methyl)-N-(3-(2-cyclopropyloxazol-5-yl)phenyl)-1-methylpiperidine-4-carboxamide] | 4800 |
